In paper PMC6609541, “Enterohepatic circulation of glucuronide metabolites of drugs in dog” (Pharmacology Research & Perspectives, 2019):
“And” between values parts separate entries of the source, which are not always exact repeats. Equal entries are not always repeated. Where two headings read alike, the source gives them in different places.

What was measured:
human wild‐type P‐gp = target: T1, human wild‐type P‐gp (Homo sapiens, UniProt P08183); assay: Bi‐directional transport across MDCKII cells expressing human P‐gp; assay type: in vitro ADME; design: key to Pgp substrate: S, substrate; NS, non‐substrate; conditions: for PappA‐B / PappB‐A: 5 µmol/L compound; for P‐gp substrate: P‐gp‐transfected MDCKII cells; for P‐gp substrate / MDCK permeability (passive membrane permeability): in words; for Pgp substrate: classified from net efflux ratio (NER >3.0 = substrate); for Net efflux ratio: uninhibited ratio divided by inhibited ratio, NER >3.0 = P‐gp substrate
T1 construct: host or cells: MDCKII
T1 sequence (P08183 whole entry): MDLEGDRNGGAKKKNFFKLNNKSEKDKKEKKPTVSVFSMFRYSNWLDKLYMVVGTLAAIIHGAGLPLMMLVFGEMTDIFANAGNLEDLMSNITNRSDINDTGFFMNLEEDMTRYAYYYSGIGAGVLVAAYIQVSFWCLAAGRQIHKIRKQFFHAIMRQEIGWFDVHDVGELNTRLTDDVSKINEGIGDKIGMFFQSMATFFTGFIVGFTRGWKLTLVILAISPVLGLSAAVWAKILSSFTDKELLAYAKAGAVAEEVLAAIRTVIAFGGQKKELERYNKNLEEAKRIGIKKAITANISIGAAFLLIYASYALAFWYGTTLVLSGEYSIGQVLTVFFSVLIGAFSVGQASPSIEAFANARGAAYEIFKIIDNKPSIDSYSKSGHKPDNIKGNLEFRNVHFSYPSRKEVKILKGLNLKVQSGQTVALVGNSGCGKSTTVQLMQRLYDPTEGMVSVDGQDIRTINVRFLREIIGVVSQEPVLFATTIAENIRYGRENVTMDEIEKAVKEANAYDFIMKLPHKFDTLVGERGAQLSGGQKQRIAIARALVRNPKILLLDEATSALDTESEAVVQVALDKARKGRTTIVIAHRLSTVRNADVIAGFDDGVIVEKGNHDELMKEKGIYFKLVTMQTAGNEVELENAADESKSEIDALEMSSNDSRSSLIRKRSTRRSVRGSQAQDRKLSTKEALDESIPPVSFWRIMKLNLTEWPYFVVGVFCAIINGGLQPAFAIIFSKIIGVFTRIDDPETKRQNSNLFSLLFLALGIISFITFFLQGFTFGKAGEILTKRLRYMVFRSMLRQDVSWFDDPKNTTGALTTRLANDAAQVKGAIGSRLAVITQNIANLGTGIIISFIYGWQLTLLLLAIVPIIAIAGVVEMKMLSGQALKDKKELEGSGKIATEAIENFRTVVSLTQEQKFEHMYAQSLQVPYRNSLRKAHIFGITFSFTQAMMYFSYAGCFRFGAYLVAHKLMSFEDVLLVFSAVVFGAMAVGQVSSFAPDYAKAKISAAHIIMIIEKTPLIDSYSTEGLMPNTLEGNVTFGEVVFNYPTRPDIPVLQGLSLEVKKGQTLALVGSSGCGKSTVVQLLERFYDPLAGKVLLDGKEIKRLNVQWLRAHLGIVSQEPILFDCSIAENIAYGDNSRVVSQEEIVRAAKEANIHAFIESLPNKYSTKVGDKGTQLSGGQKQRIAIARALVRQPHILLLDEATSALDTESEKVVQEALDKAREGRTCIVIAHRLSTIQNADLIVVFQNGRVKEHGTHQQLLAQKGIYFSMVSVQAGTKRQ
Experimental: MDCKII cells stably expressing human wild‐type P‐gp were obtained from the Netherlands Cancer Institute Amsterdam, The Netherlands). MDCK cells were maintained and the assay was conducted essentially as described previously.12, 13 Transport was measured in both directions across uninhibited and inhibited cell monolayers using a substrate concentration of 5 μmol/L diluted from a 10 mmol/L DMSO stock solution final DMSO concentration of 0.05%) and a single 60‐min time interval.

UGT = assay: Liver microsomal glucuronidation assay (human); assay type: in vitro ADME; conditions: human liver microsomes, pH 7.5, with 2% BSA
Experimental: (§1) Intrinsic clearance of the compounds by glucuronidation was conducted in human and dog liver and kidney microsomes. Microsomes (0.5 mg/mL) with or without 2% bovine serum albumin (BSA), 100 mmol/L Tris‐HCl buffer, (pH 7.5), containing 5 mmol/L MgCl2 and 50 µg of alamethicin were mixed and placed on ice for 15 minutes. Canagliflozin or DPTQ (2 µmol/L final concentration) were added, and the mixture was pre‐incubated at 37°C for 3 minutes. A 0‐minute time point was obtained and the reaction initiated by the addition of UDPGA (5 mmol/L final concentration). Aliquots of the incubation (50 µL) were removed at various time points 5, 15, 30, 60 and 120 minutes, and added to the quench solution (1:1 acetonitrile:water). The zero minute time points were also quenched in the same manner. Substrate concentrations were then measured by LC/MS and the intrinsic clearance values (μL/min/mg protein) were calculated using following equation. CLint=-kdep×incubation volume/mg protein
(§2) In which the depletion rate constant (k dep) is the slope determined using linear regression from the log transformed % remaining on the y‐axis vs time on the x‐axis (min^− ^1). […] To determine the unbound intrinsic clearances the microsomal Clint values were divided by the respective microsomal fraction unbound values. The microsomal unbound fraction both with and without 2% BSA was determined as described previously.15

UGT (glucuronidation) = assay: Liver microsomal glucuronidation assay (human); assay type: in vitro ADME; conditions: liver microsomes, pH 7.5, with 2% BSA, Clint divided by microsomal unbound fraction, read-out: Clint,u, Liver microsomes
Experimental: as §1, §2

[1] = Plasma pharmacokinetics after single intravenous administration in bile duct cannulated (BDC) and intact beagle dogs; assay type: in vivo, beagle dog; conditions: for EHC / AUC(0-inf) / half-life / clearance / AUC / Vd: dog; for EHC: enterohepatic circulation; for AUC(0-inf) / half-life / clearance / AUC / Vd: male, beagle, plasma, iv; for clearance: plasma clearance; for AUC: mean ± SD n=4, read-out: AUC0‐48 hr
Experimental: Male beagle dogs were obtained from Charles River Laboratories Inc (Wilmington, MA). Pharmacokinetic (PK) studies in intact dogs were conducted at Covance (Greenfield, IN), while bile duct cannulation surgery and PK studies were conducted in these dogs at Covance (Madison, WI). Dogs (weight: 9‐12 kg), were acclimated prior to study initiation according to Standard Operating Procedures (Covance). All intravenous compound administration was by an intravenous catheter implanted in the cephalic vein. Access to food and water was allowed ad libitum. All animal procedures were approved by the Institutional Animal Care and Use Committee at Covance. Replacement bile was not administered during the study since collection of bile was scheduled for a period of 48 hours, replacement is typically administered for studies lasting more than 60 hours.
Canagliflozin and DPTQ, both at 0.5 mg/kg, were administered intravenously in 25 mmol/L phosphate buffer (pH 8) containing 10% dimethylacetamide (v/v), 15% ethanol (v/v) via a cephalic vein. Total volume administered was 1 mL/kg. Dogs were housed in stainless steel metabolic cages during the study. Serial blood samples were collected from the jugular vein at 0.08, 0.25, 0.5, 1, 2, 4, 8, 12, 24, 36 and 48‐hours post‐dose with collection tubes containing anticoagulant K3‐EDTA. Plasma was obtained by centrifugation at 1600g for 10 minutes. Cumulative urine samples were collected between 0‐12, 12‐24, 24‐36 and 36‐48 hours and feces were collected between 0‐24 and 24‐48 hours in both intact and BDC dogs. Bile samples were collected between 0‐12, 12‐24, 24‐36, 36‐48 hours in BDC dogs. The weights of all samples except blood and plasma were recorded. All the samples were stored at −70°C until analysis by liquid chromatography tandem‐mass spectrometry (LC‐MS/MS) was performed.
Noncompartmental pharmacokinetic parameters were calculated using Watson version 7.4 (Thermo Scientific, Waltham, MA). Statistical significance of differences for pharmacokinetic parameters between two groups was examined with Student's t test using Sigmaplot 12.5 (Systat Software Inc, San Jose, CA).
Canagliflozin and DPTQ in plasma, bile, urine and feces were quantified using LC‐MS/MS. All samples plasma, urine and bile) were mixed with an organic internal standard solution essentially described previously,15 to precipitate protein and centrifuged, and the resulting supernatants were analyzed using AB Sciex API 4000 quadrupole mass spectrometer (Applied Biosystems, Foster City, CA) equipped with a TurboIonSpray interface. The feces samples were homogenized in MeOH:H2O (1:1) and shaken vigorously to obtain slurry. The homogenates then went through the sample extraction along with other matrices. The blank plasma, urine, bile and feces was spiked with internal standard for calibration curve. The pumps were Shimadzu LC‐10AD units with a SCL‐10A controller (Kyoto, Japan), and a Z‐215 liquid handler (Gilson, Middleton, WI) was used as the autosampler. All compounds were chromatographically separated using a Betasil javelin C18 20 × 2.1‐mm 5‐μm HPLC column (Thermo Fisher Scientific, Waltham, MA). The mobile phase consisted of solvent A (1 mmol/L ammonium bicarbonate in water) and solvent B (1 mmol/L ammonium bicarbonate in methanol). Drugs and metabolites were detected in positive ion mode, using selected ion mode: canagliflozin 462.2 → 191.1 m/z, DPTQ 436.2 → 158.9 m/z, and DPTQ‐O‐glucuronide 612.2 → 418.1.

[2] = MDR1‐MDCKII_inhibitor (2.5 µmol/L P‐gp inhibitor LSN335984)
[3] = 0.5 mg/kg, BDC dog, 0.5 mg/kg IV bolus
[4] = 0.5 mg/kg, BDC dog, 0.5 mg/kg IV bolus, read-out: V dss
[5] = 0.5 mg/kg, intact dog, 0.5 mg/kg IV bolus

Compound | PappB‐A/PappA‐B (human wild‐type P‐gp; MDR1‐MDCKII_control) | PappA‐B (human wild‐type P‐gp; MDR1‐MDCKII_control) | PappB‐A (human wild‐type P‐gp; MDR1‐MDCKII_control) | PappB‐A/PappA‐B (human wild‐type P‐gp; MDR1‐MDCKII_inhibitor) | PappA‐B (human wild‐type P‐gp; [2]) | PappB‐A (human wild‐type P‐gp; [2]) | P‐gp substrate (human wild‐type P‐gp) | Pgp substrate (human wild‐type P‐gp) | MDCK permeability (passive membrane permeability) (human wild‐type P‐gp) | microsomal CLint at 2 µmol/L (UGT) [µL/min/mg] | microsomal CLint at 2 µmol/L (UGT (glucuronidation)) [µL/min/mg] | EHC [1] | AUC(0-inf) [1, 3] [µM·h] | half-life [1, 3] [h] | clearance [1, 3] [mL/min/kg] | AUC [1, 3] [µM·h] | Vd [1, 4] [L/kg] | AUC [1, 5] [µM·h] | further results
Cc1ccc([C@@H]2O[C@H](CO)[C@@H](O)[C@H](O)[C@H]2O)cc1Cc1ccc(-c2ccc(F)cc2)s1 [Canagliflozin] | 22 | 4.0 ± 1.8 10^–6cm/s | 89.2 ± 8.2 10^–6cm/s | 1.3 | 10.8 ± 1.4 10^–6cm/s | 14.1 ± 0.1 10^–6cm/s | yes | S | Moderate | 7.6 | 422 | No | 16.4 ± 5.9 | 10.9 ± 1.8 | 1.32 ± 0.5 | 15.7 ± 5.4 | 0.87 ± 0.28 | 20.7 ± 3.7 | P‐gp substrate (human wild‐type P‐gp; listed as canagliflozin): P‐gp substrate; MDCK permeability (passive membrane permeability) (human wild‐type P‐gp; listed as canagliflozin): moderate; Net efflux ratio (human wild‐type P‐gp): 17.1; Net efflux ratio (human wild‐type P‐gp; listed as canagliflozin): > 3; AUC(0-inf) [1, 5]: 21.2 ± 3.9 µM·h; half-life [1, 5]: 8.05 ± 0.62 h; clearance [1, 5]: 0.93 ± 0.18 mL/min/kg; Vd ([1]; 0.5 mg/kg, intact dog, 0.5 mg/kg IV bolus, read-out: V dss): 0.72 ± 0.13 L/kg
C[C@H]1c2cccc(CC(C)(C)O)c2C[C@H](CO)N1C(=O)Cc1c(Cl)cccc1Cl [DPTQ, 2‐(2,6‐dichlorophenyl)‐1‐((1S,3R)‐5‐(2‐hydroxy‐2‐methylpropyl)‐3‐(hydroxymethyl)‐1‐methyl‐3,4‐dihydroisoquinolin‐2(1H)‐yl)ethan‐1‐one] | 1.5 | 43.0 ± 4.5 10^–6cm/s | 62.6 ± 2.6 10^–6cm/s | 1.1 | 48.9 ± 5.9 10^–6cm/s | 53.5 ± 0.4 10^–6cm/s | not a P‐gp substrate and no | NS | high and High | 5.6 | 47.1 | Yes | 5.89 ± 3.3 | 2.5 ± 2.3 | 4.43 ± 3.1 | 5.89 ± 3.3 | 0.33 ± 0.07 | 7.94 ± 2.5 | CL0‐48 h ([1]; intact dog, 0.5 mg/kg IV bolus, AUCinf not extrapolated, CL from AUC0‐48 hours, 0.5 mg/kg): 2.73 mL/min/kg and 2.73 ± 1.2 mL/min/kg; Vd ([1]; 0.5 mg/kg, intact dog, 0.5 mg/kg IV bolus, AUCinf not extrapolated, read-out: V dss 0‐48 hr): 1.48 ± 0.25 L/kg
